Measured values published in PubChem BioAssay AID330 (DTP/NCI, 2004).
Values joined by “and” are separate entries in the source; they are usually repeats but may differ in a detail not shown here. Identical values can stand only once. Inconclusive results and toxic doses are left out. Rule for the calls: active = survival T/C of 150% or more; inactive = T/C below 125% in these data.

System: P388 leukemia ip, CD2F1 mice, survival T/C
Assay: NCI In Vivo Anticancer Drug Screen. Data for tumor model P388 Leukemia (intraperitoneal) in CD2F1 (CDF1) mice
Conditions: endpoint: median survival time, higher = longer survival
Procedure, shortened: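 Mice carrying the transplanted tumor received test compound or vehicle. Survival was recorded in each group, and the value is the treated-group measurement divided by that of the vehicle-treated control group.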

[1] = dose: 12.5 mg/kg/injection, schedule: Q01DX005 (ip), vehicle: Klucel (hydroxypropylcellulose) (HPC)
[2] = dose: 25.0 mg/kg/injection, schedule: Q01DX005 (ip), vehicle: Klucel (hydroxypropylcellulose) (HPC)
[3] = dose: 50.0 mg/kg/injection, schedule: Q01DX005 (ip), vehicle: Klucel (hydroxypropylcellulose) (HPC)
[4] = dose: 100.0 mg/kg/injection, schedule: Q01DX009 (ip), vehicle: saline with Tween-80
[5] = dose: 100.0 mg/kg/injection, schedule: Q01DX005 (ip), vehicle: Klucel (hydroxypropylcellulose) (HPC)
[6] = dose: 60.0 mg/kg/injection, schedule: Q01DX005 (ip), vehicle: saline with Tween-80
[7] = dose: 120.0 mg/kg/injection, schedule: Q01DX005 (ip), vehicle: saline with Tween-80
[8] = dose: 240.0 mg/kg/injection, schedule: Q01DX005 (ip), vehicle: saline with Tween-80
[9] = dose: 6.25 mg/kg/injection, schedule: Q01DX009 (ip), vehicle: saline with Tween-80
[10] = dose: 12.5 mg/kg/injection, schedule: Q01DX009 (ip), vehicle: saline with Tween-80
[11] = dose: 200.0 mg/kg/injection, schedule: Q01DX005 (ip), vehicle: Klucel (hydroxypropylcellulose) (HPC)

Measured: T/C

C=C1C(=O)OC2/C=C(CO)/C=C\C3OC3(C)CC(OC(=O)/C(C)=C/COC(C)=O)C12 (stereo unspecified)
inactive: dose: 6.25 mg/kg/injection, schedule: Q01DX005 (ip), vehicle: Klucel (hydroxypropylcellulose) (HPC) 94 % of control | [1] 103 % of control | [2] 109 % of control and 94 % of control | [3] 98 % of control

CCC(=O)Sc1ccccc1C(=O)Nc1ccc(Cl)cc1
inactive: [4] 121 % of control and 86 % of control | dose: 200.0 mg/kg/injection, schedule: Q01DX009 (ip), vehicle: saline with Tween-80 97 % of control

CN(C)C1=NC(NC2CCCCC2)(N(C)C)OC(N(C)C)=N1 (stereo unspecified)
inactive: [2] 105 % of control | [3] 96 % of control | [5] 100 % of control

OC(/C=C/c1ccccc1)Cc1nc2ccccc2[nH]1 (stereo unspecified)
inactive: [6] 98 % of control | [7] 88 % of control

Clc1ccc(CN2COc3c(ccc4cccnc34)C2)c(Cl)c1
inactive: dose: 100.0 mg/kg/injection, schedule: Q04DX003 (ip), vehicle: Klucel (hydroxypropylcellulose) (HPC) 95 % of control | dose: 200.0 mg/kg/injection, schedule: Q04DX003 (ip), vehicle: Klucel (hydroxypropylcellulose) (HPC) 104 % of control | dose: 400.0 mg/kg/injection, schedule: Q04DX003 (ip), vehicle: Klucel (hydroxypropylcellulose) (HPC) 117 % of control

S=c1o[nH]c(-c2ccccc2)c1C=Nc1ccccc1
inactive: [6] 102 % of control | [7] 93 % of control | [8] 94 % of control

CC(C)c1ccc(C(=O)CCCCl)cc1
inactive: dose: 100.0 mg/kg/injection, schedule: Q04DX003 (ip), vehicle: saline with Tween-80 109 % of control | dose: 200.0 mg/kg/injection, schedule: Q04DX003 (ip), vehicle: saline with Tween-80 100 % of control | dose: 400.0 mg/kg/injection, schedule: Q04DX003 (ip), vehicle: saline with Tween-80 104 % of control

CSCCC(NC(=O)C(Cc1ccccc1)NC(=O)CNC(=O)C(C)NC(=O)C(N)Cc1ccc(O)cc1)C(N)=O (stereo unspecified)
inactive: dose: 8.75 mg/kg/injection, schedule: Q01DX005 (ip), vehicle: saline 103 % of control | dose: 17.5 mg/kg/injection, schedule: Q01DX005 (ip), vehicle: saline 107 % of control | dose: 35.0 mg/kg/injection, schedule: Q01DX005 (ip), vehicle: saline 100 % of control | dose: 70.0 mg/kg/injection, schedule: Q01DX005 (ip), vehicle: saline 100 % of control | dose: 140.0 mg/kg/injection, schedule: Q01DX005 (ip), vehicle: saline 104 % of control

Cc1ccc2ccc3ccc(CBr)nc3c2n1
inactive: dose: 3.12 micromoles/kg, schedule: Q01DX005 (ip), vehicle: other 110 % of control | dose: 6.25 micromoles/kg, schedule: Q01DX005 (ip), vehicle: other 99 % of control | dose: 12.0 micromoles/kg, schedule: Q01DX005 (ip), vehicle: other 111 % of control

Cc1ccc(NCCNCC(O)CO)c2c(=O)c3ccccc3sc12 (stereo unspecified)
inactive: [1] 109 % of control | [2] 118 % of control
active: dose: 50.0 mg/kg/injection, schedule: Q01DX005 (ip), vehicle: saline 151 % of control

Cc1ccc(NCCNCCO)c2c(=O)c3cc(O)ccc3sc12
inactive: dose: 25.0 mg/kg/injection, schedule: Q01DX009 (ip), vehicle: saline with Tween-80 103 % of control
active: [9] 150 % of control | [10] 156 % of control and 169 % of control

COC1/C=C/OC2(C)Oc3c(C)c(O)c4c(O)c(c(/C=N/N5CC(C)(C)N(Cc6ccccc6)CC5(C)C)c(O)c4c3C2=O)NC(=O)C(C)=C/C=C/C(C)C(O)C(C)C(O)C(C)C(OC(C)=O)C1C (stereo unspecified)
inactive: dose: 50.0 mg/kg/injection, schedule: Q01DX009 (ip), vehicle: saline with Tween-80 107 % of control | [4] 118 % of control

Cc1ccc(C2(c3ccccc3)OC3OC=CC32)cc1 (stereo unspecified)
inactive: dose: 25.0 mg/kg/injection, schedule: Q01DX005 (ip), vehicle: saline with Tween-80 97 % of control | dose: 50.0 mg/kg/injection, schedule: Q01DX005 (ip), vehicle: saline with Tween-80 101 % of control | [6] 96 % of control | dose: 100.0 mg/kg/injection, schedule: Q01DX005 (ip), vehicle: saline with Tween-80 100 % of control | [8] 96 % of control

O=C(Nc1ccc(Cl)c(Cl)c1)Nc1ccc(Cl)c(Cl)c1 (tested in a mixture with another compound)
inactive: dose: 3.13 mg/kg/injection, schedule: Q01DX009 (ip), vehicle: saline with Tween-80 97 % of control | [9] 88 % of control | [10] 94 % of control

CCOc1cc2c(cc1C(CC)c1ccc(OC)cc1)OCO2 (stereo unspecified)
inactive: [3] 104 % of control | [5] 104 % of control | [11] 99 % of control

O=C(Nc1cc(-c2ccccc2)nn1-c1ccccc1)c1ccc(Cl)cc1
inactive: [6] 99 % of control and 94 % of control | [7] 93 % of control | [8] 87 % of control and 94 % of control

COc1ccc(C2C3=C(CC(C)(C)CC3=O)Oc3cc4c(cc32)OCO4)c(OC)c1 (stereo unspecified)
inactive: [6] 99 % of control | [7] 93 % of control | [8] 92 % of control

COc1cccc(C2NC(c3cccc(OC)c3)C3CCCC2C3=O)c1 (stereo unspecified)
inactive: [2] 103 % of control | [3] 102 % of control | [5] 106 % of control | [11] 102 % of control

CCCCCCCC(=O)NC(CCSC)C(=O)O (stereo unspecified)
inactive: [3] 107 % of control | [5] 88 % of control | [11] 104 % of control

COc1cccc2c1C(=O)c1c(O)c3c(c(O)c1C2=O)C[C@@](O)(/C(CO)=N/NC(=O)c1ccccc1)C[C@@H]3OC1CC(N)C(O)C(C)O1 (stereo partly specified)
active: dose: 0.5 mg/kg/injection, schedule: Q01DX009 (ip), vehicle: water 150 % of control | dose: 1.0 mg/kg/injection, schedule: Q01DX009 (ip), vehicle: water 154 % of control and 169 % of control | dose: 2.0 mg/kg/injection, schedule: Q01DX009 (ip), vehicle: water 154 % of control and 171 % of control and 190 % of control | dose: 4.0 mg/kg/injection, schedule: Q01DX009 (ip), vehicle: water 172 % of control and 180 % of control and 212 % of control | dose: 8.0 mg/kg/injection, schedule: Q01DX009 (ip), vehicle: water 201 % of control and 230 % of control and 390 % of control | dose: 8.6 mg/kg/injection, schedule: Q01DX009 (ip), vehicle: saline 163 % of control | dose: 10.8 mg/kg/injection, schedule: Q01DX009 (ip), vehicle: saline 187 % of control
inactive: dose: 0.12 mg/kg/injection, schedule: Q01DX009 (ip), vehicle: water 103 % of control | dose: 0.25 mg/kg/injection, schedule: Q01DX009 (ip), vehicle: water 99 % of control | dose: 0.8 mg/kg/injection, schedule: Q01DX009 (ip), vehicle: saline 112 % of control | dose: 1.4 mg/kg/injection, schedule: Q01DX009 (ip), vehicle: saline 112 % of control | dose: 2.3 mg/kg/injection, schedule: Q01DX009 (ip), vehicle: saline 113 % of control | dose: 3.9 mg/kg/injection, schedule: Q01DX009 (ip), vehicle: saline 118 % of control | dose: 6.0 mg/kg/injection, schedule: Q04DX003 (ip), vehicle: water 96 % of control | dose: 18.0 mg/kg/injection, schedule: Q01DX009 (ip), vehicle: saline 90 % of control | dose: 96.0 mg/kg/injection, schedule: Q04DX003 (ip), vehicle: water 114 % of control

COc1ccc(CSC(=S)Nc2ccc(C)c(Br)c2)cc1
inactive: dose: 50.0 mg/kg/injection, schedule: Q01DX009 (ip), vehicle: saline 100 % of control | dose: 100.0 mg/kg/injection, schedule: Q01DX009 (ip), vehicle: saline 97 % of control | dose: 100.0 mg/kg/injection, schedule: Q01DX009 (ip), vehicle: suspension in saline 91 % of control | dose: 200.0 mg/kg/injection, schedule: Q01DX009 (ip), vehicle: saline 106 % of control | dose: 200.0 mg/kg/injection, schedule: Q01DX009 (ip), vehicle: suspension in saline 104 % of control
